Marks after values point to notes of the source that are not given here.
How the values were obtained:
[1] = DSC of Dispersions A-J (oxaprozin or 5-methyl-5-phenylhydantoin) and pure drugs; type: physicochemical; details: heating rate 10° C./min
Description: (§1) Thermogravimetric analysis (TGA) of Dispersions A-J was performed using a Q500 instrument from TA Instruments. The decomposition temperature (Td) at 5% was recorded for each dispersion and Td,1% was recorded for the pure drugs. Td,5% was recorded for the dispersions due to the hydrophilic properties of the surfactants, which required removal of surface moisture before the materials began to decompose. Differential Scanning Calorimetry (DSC) experiments were performed on Dispersions A-J and pure oxaprozin and 5-methyl-5-phenylhydantoin using a Discovery Series instrument from TA Instruments. Each dispersion was heated twice to Td,5%. The pure compounds were heated twice to Td,1%. The heating rate in all experiments was 10° C./min. […] These values approached the Tg value of pure surfactants (135.76° C.) as the ratio of the molecular weight of the poly(N-isopropylacrylamide) hydrophilic segment in kDa/mol to (m+1) increased. Generally, the dispersions including oxaprozin yielded lower Tg values. Without being bound by theory, the lower Tg values might be attributable to the larger size of oxaprozin, which would further disrupt surfactant packing.

[2] = TGA of Dispersions A-J (oxaprozin or 5-methyl-5-phenylhydantoin) and pure drugs; type: physicochemical; details: pure drugs
Description: as §1

Compound | First Heat Tg [1] [°C] | Td,1% [2]
CC1(c2ccccc2)NC(=O)NC1=O (stereo not shown) [5-methyl-5-phenylhydantoin] | 134 | 188* ° C.
O=C(O)CCc1nc(-c2ccccc2)c(-c2ccccc2)o1 [Oxaprozin, oxaprozin] | 21 | 206* ° C.
